According to patent publication US20150239864A1, “3H-1,2-DITHIOCYCLOPENTENE-3-THIOKETONE COMPOUNDS AND APPLICATION THEREOF” (Soochow University, priority 2012, published 2015):

Assays:
HT22 cells = experiment: Glutamate-induced neural oxidative stress injury model in HT22 cells, survival by MTT; format: cell-based, Mouse; details: 5 mM glutamate added with compound at 1, 10, 50 or 100 μM, MTT after 24 h
Protocol: Mouse Hippocampal neuron cell line HT22, 24-well culture plate (Corning), glutamic acid (Glutamate, Sigma), DMEM culture medium (GIBCO), fetal bovine serum (GIBCO), 3-(4,5-dimethylthiazol-2-yl)-2,5-diphenyltetrazolium bromide (MTT, Sigma), dimethyl sulfoxide (Sinopharm Group. Co. Ltd.), and microplate reader (TECAN).
2.1. Cell culture: HT22 cells were taken out of the liquid nitrogen container, and thawed quickly in a water-bath at 37° C. After that, the outside wall of cryopreservation tube was disinfected by alcohol wipes, and it was then placed in a clean bench. The cells were transferred to a centrifuge tube containing 10 ml medium and centrifuged at 1000 rpm for 3 min. After centrifugation, the supernatant was discarded, and 10 mL DMEM containing 10% FBS was added to the centrifuge tube. The mixture was vigorously pipetted to prepare a cell suspension. The cell suspension was inoculated to a 100×20 mm Petri dish. Cells were cultured at 37° C. and 5% CO2. When the cell density reached confluent, the cells were digested and seeded onto the wells of a 24-well plate at the density of 2×10^4/well.
2.2. Treatment and groups: after the cells were cultured in the 24-well plate for 24 hours, 5 mM glutamate was added together with the compound each synthesized in Example 1-10 or Example 13 at a final concentration of 1, 10, 50, or 100 μM. DMSO served as vehicle and was added to the cells of the control group at an equal volume. The viability of the cells was detected by MTT method 24 h after the treatment.
2.3. Detection by MTT: 50 μL, 0.5 mg/ml MTT was added to each well 24 h after the treatment of cells. The cells were further incubated at 37° C. and 5% CO2 for 4 h. Subsequently, the supernatant was discarded. The cells were lysed by adding 500 μL dimethyl sulfoxide (DMSO). The absorbance was detected at 570 nm by a microplate reader, which is positively correlated with survival rate of cells. The survival rate of the cells in the treatment groups was expressed as the percent of the survival rate of the cells without glutamate treatment. All data were expressed as mean±standard deviation (SD). Statistical analysis was carried out for all data using SPSS 17.0. The difference between the groups was tested by one way anova. P<0.01 was considered as very significant difference.

microglia cell line BV2 = experiment: LPS-induced inflammatory response of microglia, nitrite by Griess reagent; format: cell-based; details: 200 ng/mL LPS, 24 h, compound at 10-100 μM, vs LPS alone, p<0.01
Protocol: Brain microglia cell line BV-2, 96-well culture plate (Corning, USA), DMEM medium (Hyclone, USA), fetal bovine serum (FBS) (GIBCO, USA), dimethyl sulfoxide (DMSO) (SIGMA, USA), Griess reagent (SIGMA, USA), sodium nitrite (ChemNet, China), microplate reader (BIO-RAD, USA)
2.1. Cell cultures: After taken out of the liquid nitrogen container, BV-2 cells were quickly placed in warm water at 37° C. and gently shaken for thawing. Subsequently, it was centrifuged at 1000 rpm for 3 min, and the supernatant was discarded. […] When 60%-70% of confluence of the passaged cells was achieved, the cells were harvested by centrifugation at 1000 rpm for 3 min. The cells were then stained by trypan blue and counted under a microscope by globulimeter. After cell counting, it was diluted into a suspension containing 150 to 200 thousand of cells/ml, which was then plated in the 96-well plate (15 to 20 thousand of […]).
2.2. Treatment and groups: after the cells were cultured in the […] for 24 h, 200 ng/mL LPS was added together with compound YC1-1 of Example 1, YC1-8 of Example 8 and YC2-2 of Example 12 at a final concentration of 1, 10, 50, or 100 μM. DMSO served as vehicle and was added to the cells of control group at the equal volume. The cells were further incubated in an incubator.
2.3. The amount of nitrite produced was detected 24 h after the atreatment, to characterize the inflammatory response of BV2 cells induced by LPS and the inhibitory effect of compound YC1-1 of Example 1 and compound YC1-8 of Example 8 on the LPS-induced inflammatory response.
Detection method of nitrite: […], supernatant was taken out of the wells of 96-well plate, and added to the corresponding wells of another clean 96-well plate. Subsequently, 50 μL Griess reagent was added to each well, and the OD value was detected at 570 nm. The amount of nitrite was calculated based on the standard curve. The result was expressed as the relative yield of nitrite, wherein the relative yield of the control group treated only by LPS was designated as 1. All data were expressed as mean±standard deviation (SD). […]

[1] = tested on: mouse middle cerebral artery occlusion model; experiment: Mouse middle cerebral artery occlusion (MCAO) model, infarct volume by TTC staining; format: in vivo; details: half at 3 h and half at 10 h of reperfusion, 24 h after MCAO, vs vehicle, p<0.05
Protocol: Male ICR mice (body weight of 30±2.0 g) were purchased from Shanghai Laboratory Animal Center, Chinese Academy of Sciences. The mice were raised at room temperature and 12 h cycle of light and dark, with free access to food and water.
2.1. Middle cerebral artery occlusion (MCAO) model: the middle cerebral artery occlusion (MCAO) model was performed by reference to Longa's method or other modified suture-occluded method. The specific experimental procedures were as follows: after anaesthetized by isoflurane, the mouse was fixed in supine position, and the skin of neck and head was sterilized using iodine. The probe of laser-Doppler blood flowmeter was fixed at the midpoint of the line between the ear and the eye on the right side of the mouse to monitor the real-time perfusion in the cerebral cortex. A 1.5 cm incision was made in the middle of the neck to expose common carotid artery on the right side. Tissues were separated under an operating microscope layer by layer. The common carotid artery was first separated which was temporarily ligated 0.5 cm away from the distal end using 5-0 suture. Then, the external carotid artery and internal carotid artery on the right side were subsequently separated and the external carotid artery was ligated 0.5 cm away from the distal end using 5-0 suture. At the same time, the internal carotid artery was temporarily clamped using a mini vascular clamp. Subsequently, a small incision was made by an ophthalmic scissor on the inner side of the ligation at the distal end of the external carotid artery. To occlude the […], one of the ends of the suture was slightly enlarged by heating, coated by silica gel, and sterilized using alcohol. The length of the suture was about 2 cm, and the diameter of the enlarged end was […]. The suture was held using a fine forceps and inserted into the incision on the external carotid artery.). Once the suture passed through the incision of the external carotid artery, the ligation was lifted at the distal end of external carotid artery until the enlarged end of the suture entered the bifurcation of the […]. The suture was then tightened, and the vascular clamp on the internal carotid artery was opened. […] The starting time for occlusion was recorded. For reperfusion, the suture was withdrawn 60 min after middle cerebral artery occlusion. The rectal temperature was maintained at 37.0±0.5° C. by a heating blanket during and after the surgery, until the animal was revived.
2.2 Animal groups and drug administration: the animals were randomly divided into 3 groups, including control group treated with vehicle, YC1-8 group (100 mg/kg) and YC1-8 group (50 mg/kg). There were 8 mice in each group. 12 mg YC1-8 was initially dissolved by 80 μL DMSO, and then diluted by 920 μL corn oil to prepare a solution with the final concentration of 12 mg/mL. One half of dosage of compound YC1-8 was initially administrated at 3 h of reperfusion after ischemia by intraperitoneal injection, while the other half of dosage was administrated at 10 h of reperfusion after ischemia. For the control group, the same volume of DMSO-containing corn oil was administrated to the mice at 3 h and 10 h.
2.3. Detection of the cerebral infarct volumes: 24 h after reperfusion following mouse middle cerebral artery occlusion (MCAO), the mice were sacrificed under anesthetized and the brain was collected. After the brain tissue was stripped off, the olfactory bulb and cerebellum were removed. A series of 5 coronary sections of brain were made at an interval of 1 mm, which were then placed in 2% TTC solution at 37° C. under darkness in a warm bath. The sections were turned over every 15 min, with a total duration of 30 min. The size of cerebral infarction was determined by TTC staining method. Due to the reduction of TTC by […] in mitochondrion, normal brain tissue was red, and the ischemic infarct area was white. […]

| SMILES | Concentration range for protection (HT22 cells) [µM] | other results |
| --- | --- | --- |
| S=c1cc(-c2ccc3c(c2)OCO3)ss1 [YC1-6, 5-(3,4-methylenedioxyphenyl)-3H-1,2-dithiacyclopentene-3-thione] | 1 to 100 |  |
| Cc1ccc(-c2cc(=S)ss2)cc1 [YC1-4, 5-p-methylphenyl-3H-1,2-dithiacyclopentene-3-thione] | 10 to 100 |  |
| COc1ccc(-c2cc(=S)ss2)cc1 [YC1-8, 5-p-methoxyphenyl-3H-1,2-dithiacyclopentene-3-thione] | 10 to 100 | LPS induced inflammatory response of BV2 cells (nitrite production) (microglia cell line BV2): significantly inhibited; infarction volume in cerebral cortex ([1]; 50 mg/kg YC1-8 i.p.): significantly reduced; infarction volume in hemisphere ([1]; 50 mg/kg YC1-8 i.p.): significantly reduced; infarction volume in striatum ([1]; 50 mg/kg YC1-8 i.p.): significantly reduced; infarction volume in cerebral cortex ([1]; 100 mg/kg YC1-8 i.p.): significantly reduced; infarction volume in hemisphere ([1]; 100 mg/kg YC1-8 i.p.): significantly reduced; infarction volume in striatum ([1]; 100 mg/kg YC1-8 i.p.): significantly reduced |
| O=C(Oc1ccc(-c2cc(=S)ss2)cc1)c1cccnc1 [YC2-3, 4-(3H-1,2-dithio-3-thioketone-5-yl)phenyl pyridine-3-carboxylate] | 50 to 100 |  |
| S=c1cc(-c2ccccc2)ss1 [YC1-9, 5-phenyl-3H-1,2-dithiacyclopentene-3-thione] | 1 to 100 |  |
| COc1ccc(-c2cc(=S)ss2)c(OC)c1 [YC1-7, 5-(2,4-dimethoxyphenyl)-3H-1,2-dithiacyclopentene-3-thione] | 1 to 100 |  |
| Fc1ccc(-c2cc(=S)ss2)cc1 [YC1-2, 5-p-fluorophenyl-3H-1,2-dithiacyclopentene-3-thione] | 10 to 100 |  |
| Fc1cc(-c2cc(=S)ss2)c(Cl)cc1Cl [YC1-5, 5-(2,4-dichloro-5-fluorophenyl)-3H-1,2-dithiacyclopentene-3-thione] | 1 to 100 |  |
| S=c1cc(-c2ccc3ccccc3c2)ss1 [YC1-10, 5-(2-naphthyl)-3H-1,2-dithiacyclopentene-3-thione] | 1 to 100 |  |
| CC(=O)Oc1ccccc1C(=O)Oc1ccc(-c2cc(=S)ss2)cc1 [YC2-2, 4-(3H-1,2-dithio-3-thioketone-5-yl)phenyl 2-acetoxy benzoate] |  | LPS induced inflammatory response of BV2 cells (nitrite production) (microglia cell line BV2): significantly inhibited |
| Oc1ccc(-c2cc(=S)ss2)cc1 [YC1-1, 5-p-hydroxyphenyl-3H-1,2-dithiacyclopentene-3-thione] | 10 to 100 | LPS induced inflammatory response of BV2 cells (nitrite production) (microglia cell line BV2): significantly inhibited |
| S=c1cc(-c2cccs2)ss1 [YC1-3, 5-(2-thienyl)-3H-1,2-dithiacyclopentene-3-thione] | 10 to 100 |  |
